The target of data set [1] is T1, human Kv4.3/KChIP2.2 potassium channel (Homo sapiens, UniProt Q9UK17).
T1 construct: expressed in transfected cells
T1 sequence (Q9UK17 1-655): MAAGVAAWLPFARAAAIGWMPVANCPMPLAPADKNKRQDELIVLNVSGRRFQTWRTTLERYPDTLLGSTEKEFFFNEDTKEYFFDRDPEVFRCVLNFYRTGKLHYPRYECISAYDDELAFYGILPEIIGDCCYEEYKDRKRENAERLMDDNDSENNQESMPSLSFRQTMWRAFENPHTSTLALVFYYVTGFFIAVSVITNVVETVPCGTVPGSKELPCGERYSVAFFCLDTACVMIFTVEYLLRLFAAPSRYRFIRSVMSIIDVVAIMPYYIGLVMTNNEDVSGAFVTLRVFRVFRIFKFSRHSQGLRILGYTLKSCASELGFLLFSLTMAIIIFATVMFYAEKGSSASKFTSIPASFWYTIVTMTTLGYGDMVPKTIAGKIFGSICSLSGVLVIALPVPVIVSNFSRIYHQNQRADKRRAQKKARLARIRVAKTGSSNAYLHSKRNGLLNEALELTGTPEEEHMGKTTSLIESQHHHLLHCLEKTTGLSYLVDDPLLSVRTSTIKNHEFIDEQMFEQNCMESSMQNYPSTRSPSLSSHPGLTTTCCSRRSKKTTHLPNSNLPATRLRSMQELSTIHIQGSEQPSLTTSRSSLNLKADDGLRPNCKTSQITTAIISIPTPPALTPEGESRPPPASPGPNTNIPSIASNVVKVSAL
As to the kind of experiment: Whole cell patch clamp, CHO-K1 cells stably expressing human Kv4.3/KChIP2.2. The data set is classed as cell-based. Conditions: CHO-K1. How it is done:
For this experiment, a recombinant CHO-K1 cell line stably expressing the human Kv4.3/KChIP2.2 potassium channel was used. The cells used for this experiment were kept in continuous culture under standard conditions (37° C., air supplemented with 7% CO2). The CHO-K1 Kv4.3/KChIP2.2 cells were kept in Iscove s modified DMEM (Dulbecco's Modified Eagle's Medium) medium (IMEM) supplemented with 100 U/ml Penicillin, 100 μg/ml Streptomycin, 7% fetal calf serum (FCS), 2.5 μg/ml amphotericin, 400 μg/ml G418, and 400 μg/ml Zeocin™. Cells were passed every 3-4 days after detachment using a Trypsin solution. The quality of the cultured cells was guaranteed by vitality and contamination tests. The culture of the cells was performed as described in protocol D hereunder.
10 mM stock solutions of the compounds were prepared in DMSO. Solutions of the compounds were prepared by dilution of stock solution in bath solution. If the required stock solution volume was theoretically below 1 μl, bath solutions with higher compound concentration were used for dilution. The maximal DMSO concentration during experiments was 0.1% (v/v).
Activity of the human Kv4.3/KChIP2.2 channel was investigated using the patch clamp technique in its whole cell mode. This means that the current needed for clamping the whole cell expressing the K^+-channel protein to a specific potential was measured. Experiments were performed using a patch clamp set-up. Technical equipment needed for manipulation of the cells was placed on a vibration-isolated table and shielded with a Faraday cage to minimize electrical noise. The amplifier and control system were placed in a rack outside the Faraday cage. The system consisted of an EPC9 or EPC10 patch clamp amplifier (HEKA, Lambrecht, Germany), and the perfusion system DADVC8 (ALA Scientific, New York, USA) controlled by the Pulse software package (HEKA, Lambrecht, Germany) installed on a personal computer. The pipettes used for patch clamping were made of borosilicate glass.
Measurements were performed at room temperature (20-25° C.). In each experiment (i.e. each cell) only one concentration of the compounds was investigated no cumulative dosages were performed. Each cell acted as its own control. […]
Between voltage pulses the cell was clamped to a holding potential of −80 mV (inside). The test protocols are illustrated in FIG. 1 and Table 4. The test protocol illustrated in FIG. 1a was used to characterize the properties of the Kv4.3/KChIP2.2 channel and to check the quality of the individual patch clamp experiment (voltage control). […] Each test protocol consisted of 4 segments.
After the whole cell configuration was established a current-voltage curve (IV activation 1; FIG. 1a and Table 4a) was recorded under constant superfusion with bath solution to check for Kv4.3/KChIP2.2 expression and the quality of the individual patch clamp experiment (voltage control). Subsequently, 14 test pulses (series 1; FIG. 1b and Table 4b) were applied at 0.1 Hz under constant superfusion with bath solution. The protocol was initiated by a voltage jump to 100 mV (400 ms) to achieve full inactivation. Then the Kv4.3/KChIP2.2 channels were transferred to the open state by depolarization to +40 mV for 300 milliseconds (activation). Only cells generating current amplitudes between 1 nA and 50 nA were used for the experimental procedure. No or negligible rundown was observed.
Then, 36 test pulses (series 2) were applied at 0.1 Hz under constant superfusion with the compound dissolved in bath solution. Finally, another current-voltage curve was recorded in the presence of the compounds (IV activation 2).
Three different types of analysis were used: Inhibition at the peak current, inhibition of translocated charge and inhibition 75 ms after activation at +40 mV (sustained current). The peak current/charge/current at 75 ms was determined using the online analysis tool of the HEKA pulse software package. […]
(The patch-clamp technique gives a direct electrical read-out from membranes.)

Setting [2] is: remaining current measured after application of the compound and relative to the blank, read-out: Kv4.3 charge in %.
[3] abbreviates: remaining peak height measured after application of the compound and relative to the blank, read-out: Kv4.3 peak in %.

Like-named read-outs stand apart in the source and are kept apart here.

`COc1ccccc1Nc1nc(C)c(C(=O)N2Cc3ccccc3C2)s1` [Compound 84, (1,3-dihydro-isoindol-2-yl)-[2-(2-methoxy-phenylamino)-4-methyl-thiazol-5-yl]-methanone]: the melting point (as a rule, the temperature of the solid-liquid transition) was in the range of 147.6 to 149.6 °C. The remaining activity at 1 µM in data set [1] (setting [2]) is 87%. Also, the remaining activity at 1 µM in data set [1] (setting [3]) came to 99%.

Turning to `COc1ccccc1Nc1nc(C)c(C(=O)NCc2ccc(C)cc2)s1` [Compound 142, 2-(2-methoxy-phenylamino)-4-methyl-thiazole-5-carboxylic acid 4-methyl-benzylamide], the melting point fell in the range of 166.8 to 168.3 °C. The remaining activity at 1 µM in data set [1] (setting [2]) came out at 74%. The remaining activity at 1 µM in data set [1] (setting [3]) came to 80%.

The molecule `COc1ccccc1Nc1nc(C)c(C(=O)N2CCC(c3ccccc3OC)CC2)s1` [Compound 165, [2-(2-methoxy-phenylamino)-4-methyl-thiazol-5-yl]-[4-(2-methoxy-phenyl)-piperidin-1-yl]-methanone] showed a melting point of 134.5 to 139 °C. The remaining activity at 1 µM in data set [1] (setting [2]) worked out at 80%. Further, in data set [1] (setting [3]), the remaining activity at 1 µM amounted to 100%.

`CCOC(=O)c1cccc(Nc2nc(C)c(C(=O)N[C@H]3CCC[C@@H]3OCc3ccccc3)s2)c1` [Compound 89, 3-[5-((1S,2S)-2-benzyloxy-cyclopent-1-ylcarbamoyl)-4-methyl-thiazol-2-ylamino]-benzoic acid ethyl ester] came in with a melting point of 145.7 to 148 °C. For the same molecule, in data set [1] (setting [2]), the remaining activity at 1 µM is 55%. The remaining activity at 1 µM in data set [1] (setting [3]) was found to be 93%.

As for `COc1ccccc1Nc1nc(C)c(C(=O)N[C@H](C(=O)O)c2ccccc2)s1` [Compound 114, (S)-{[2-(2-methoxy-phenylamino)-4-methyl-thiazole-5-carbonyl]-amino}-phenyl-aceticacid], the melting point lay within 259.6 to 262 °C. Besides, the remaining activity at 1 µM in data set [1] (setting [2]) was 88%. Moreover, in data set [1] (setting [3]), the remaining activity at 1 µM turned out to be 87%.

On to `COc1ccccc1Nc1nc(C)c(C(=O)NCc2ccc(Oc3ccccc3)cc2)s1` [Compound 102, 2-(2-methoxy-phenylamino)-4-methyl-thiazole-5-carboxylic acid 4-phenoxy-benzylamide], for which the melting point is 159.7 to 162.4 °C. The remaining activity at 1 µM in data set [1] (setting [2]) was 76%. Moreover, the remaining activity at 1 µM in data set [1] (setting [3]) came out at 89%.

`COc1ccccc1Nc1nc(C)c(C(=O)NCc2cc(C)ccc2C)s1` [Compound 160, 2-(2-methoxy-phenylamino)-4-methyl-thiazole-5-carboxylic acid 2,5-dimethyl-benzylamide]: the melting point lay within 124.1 to 124.9 °C. Moreover, the remaining activity at 1 µM in data set [1] (setting [2]) was 90%. The remaining activity at 1 µM in data set [1] (setting [3]) came out at 99%.

Turning to `COc1ccccc1Nc1nc(C)c(C(=O)N2CCCCC2Cc2ccccc2)s1` (stereo not drawn) [Compound 86, (2-benzyl-piperidin-1-yl)-[2-(2-methoxy-phenylamino)-4-methyl-thiazol-5-yl]-methanone], the melting point was in the range of 93.2 to 95.6 °C. Further, the remaining activity at 1 µM in data set [1] (setting [2]) turned out to be 79%. Further, the remaining activity at 1 µM in data set [1] (setting [3]) came to 102%.

Take `COc1ccccc1Nc1nc(C)c(C(=O)NCCOCc2ccccc2)s1` [Compound 88, 2-(2-methoxy-phenylamino)-4-methyl-thiazole-5-carboxylic acid (2-benzyloxy-ethyl)-amide]: the melting point is 44.6 to 47.6 °C. Moreover, in data set [1] (setting [2]), the remaining activity at 1 µM came to 85%. In addition, in data set [1] (setting [3]), the remaining activity at 1 µM amounted to 95%.

For the molecule `COc1ccccc1Nc1nc(C)c(C(=O)NCc2ccsc2)s1` [Compound 118, 2-(2-methoxy-phenylamino)-4-methyl-thiazole-5-carboxylic acid (thiophen-3-ylmethyl)-amide], the melting point lay within 153.4 to 154.8 °C. Moreover, in data set [1] (setting [2]), the remaining activity at 1 µM turned out to be 85%. For the same molecule, the remaining activity at 1 µM in data set [1] (setting [3]) is 94%.

Take `COc1ccccc1Nc1nc(C)c(C(=O)NCc2ccc(CNC(C)=O)cc2)s1` [Compound 96, 2-(2-methoxy-phenylamino)-4-methyl-thiazole-5-carboxylic acid 4-(acetylamino-methyl)-benzylamide]: the melting point lay in the range of 199.7 to 200.3 °C. For the same molecule, the remaining activity at 1 µM in data set [1] (setting [2]) was determined as 85%. In addition, the remaining activity at 1 µM in data set [1] (setting [3]) is 99%.

For `COc1ccccc1Nc1nc(C)c(C(=O)Nc2ccccc2)s1` [Compound 82, 2-(2-methoxy-phenylamino)-4-methyl-thiazole-5-carboxylic acid phenylamide], the melting point fell in the range of 183.5 to 188.1 °C. For the same molecule, the remaining activity at 1 µM in data set [1] (setting [2]) worked out at 82%. Also, the remaining activity at 1 µM in data set [1] (setting [3]) came out at 91%.

`Cc1nc(NCc2ccccc2)sc1C(=O)N[C@H]1CCC[C@@H]1OCc1ccccc1` [Compound 211, 2-benzylamino-4-methyl-thiazole-5-carboxylic acid ((1S,2S)-2-benzyloxycyclopent-1-yl) amide] yielded a melting point of 185.1 to 185.8 °C. For the same molecule, in data set [1] (setting [2]), the remaining activity at 1 µM came to 86%. Further, in data set [1] (setting [3]), the remaining activity at 1 µM stood at 98%.

The molecule `COc1ccccc1Nc1nc(C)c(C(=O)NCc2ccc(-c3csnn3)cc2)s1` [Compound 161, 2-(2-methoxy-phenylamino)-4-methyl-thiazole-5-carboxylic acid 4-[1,2,3]thiadiazol-4-yl-benzylamide] returned a melting point of 191.6 to 194.5 °C. Also, in data set [1] (setting [2]), the remaining activity at 1 µM was found to be 75%. Besides, the remaining activity at 1 µM in data set [1] (setting [3]) was determined as 89%.

Regarding `COc1ccccc1Nc1nc(C)c(C(=O)NC2Cc3ccccc3C2)s1` [Compound 83, 2-(2-methoxy-phenylamino)-4-methyl-thiazole-5-carboxylic acid indan-2-ylamide], the melting point was in the range of 143.2 to 147.6 °C. Besides, in data set [1] (setting [2]), the remaining activity at 1 µM is 77%. Also, in data set [1] (setting [3]), the remaining activity at 1 µM is 97%.

In turn, `COc1ccccc1Nc1nc(C)c(C(=O)N2CCc3ccccc3C2)s1` [Compound 85, (3,4-dihydro-1H-isoquinolin-2-yl)-[2-(2-methoxy-phenylamino)-4-methyl-thiazol-5-yl]-methanone] returned a melting point of 159.3 to 163.5 °C. The remaining activity at 1 µM in data set [1] (setting [2]) worked out at 82%. Moreover, in data set [1] (setting [3]), the remaining activity at 1 µM is 96%.

The values are drawn from patent publication US20080125432A1 (Devgen NV, priority 2004, published 2008).
